In US11278584B2, “Pharmaceutical composition for preventing and treating senile dementia and preparation method thereof” (priority 2014, dated 2022):
Where a name gives a salt, the structure may show the parent alone.

Legend:
[1] = tested on: Scop induced dysmnesia model rats; assay: Jump platform test, scopolamine-induced dysmnesia model rats; assay type: in vivo, SD Male rats; conditions: intragastric 2 weeks, compositions 11.08 g raw medicinal materials/kg, Donepezil 1.17 mg/kg
Method: (§1) Animals: SD Male rats, available from Da Shuo Biological Technology Co. LTD, Chengdu City, China, were used. 2. Testing Method
(§2) Rats were randomly divided into Normal control group, Scop Model group, Positive control group (Donepezil, 1.17 mg/kg) and Experimental group (administered with a pharmaceutical composition of Example 1 in an amount of 11.08g raw medicinal materials per kg body weight). Before experiments, rats were fed by intragastric administration for 2 weeks. The normal control group and the model group were fed the same volume of distilled water. On day 9, rats were trained in the pool of Morris 2 times per day. On day 14, rats were subjected to do Morris water Maze and jump platform testing.
(§3) On experiment day, rats were intragastrically administered. 30 Minutes later, they were administered with scopolamine hydrobromide (HBr) by intraperitoneal injections (2 mg·kg^−1 for two days and then 1 mg·kg^−1 on day 3). 20 Minutes later, rats were subjected to Morris water Maze testing. […] Their swimming performance was tracked and recorded by a camera. The travel path, time spent and speed of movement of rats in 90 s were recorded by a computer automatically, and the swimming distance and escape latency for finding the platform were calculated. […] The first step down latency (SDL) and escape latency (the time required to escape from electric shock, EL) of rats were recorded.

[2] = tested on: Scop induced dysmnesia model mice; assay: Morris water maze test, scopolamine-induced dysmnesia model mice; assay type: in vivo; conditions: KM mice, intragastric 2 weeks, compositions 31.66 g raw medicinal materials/kg (J: high dosage), Donepezil 1.67 mg/kg
Excerpt: Animals: KM mice, available from Da Shuo Biological Technology Co. LTD, Chengdu City, China, were used.
Before experiments, mice of experimental group were fed by intragastric administration of a pharmaceutical composition for 2 weeks, while the normal control group and the model group were fed the same volume of distilled water. On day 9, mice were trained in the pool of Morris, 2 times per day. On day 14, mice were subjected to Morris water Maze testing.
On experiment day, mice were fed by intragastric administration. 30 Minutes later, they were administered with Scop in a dosage of 3 mg·kg^−1 via intraperitoneal injection. 20 Minutes later, the mice were subjected to Morris water Maze testing. The normal control group was intraperitoneally injected with the same volume of saline. The swimming performance of mice were tracked and recorded by a camera. The travel path, time spent and speed of movement of mice in 300 s were recorded by a computer automatically. The maximum latency was set as 300 s. The recording stopped after 300 s. The escape latency and swimming distance for looking for the platform were recorded.

[3] = tested on: Scop induced dysmnesia model rats; assay: Morris water maze test, scopolamine-induced dysmnesia model rats; assay type: in vivo, SD Male rats; conditions: intragastric 2 weeks, compositions 11.08 g raw medicinal materials/kg, Donepezil 1.17 mg/kg
Method: as §1, §2, §3

COc1cc2c(cc1OC)C(=O)C(CC1CCN(Cc3ccccc3)CC1)C2 (stereo not drawn) [Positive control, Donepezil Hydrochloride]
SDL(s) (first step down latency) ([1]; model control 16.04): 28.67 s | EL(s) (escape latency from electric shock) ([1]; model control 130.63): 109.17 s | Escape latency ([2]; model control 176.54): 141.42 s | Swimming Distance (cm) ([2]; model control 3646.54): 2738.70 cm | Escape latency ([3]; model control 49.63): 37.27 s | Distance (cm) ([3]; model control 2173.42): 1647.50 cm
